The text below walks through data of patent US11083195B2, “Insecticidal compositions and methods to kill insects” (priority 2019, dated 2021).

Like-named read-outs stand apart in the source and are kept apart here.

Data set [1] relates to Drosophila suzukii. It is filed as in vivo. To be noted: vial; for Statistical comparison of mortalities in words: second experiment, 7 days, log-rank pairwise comparisons (FIG. 3); for Mortality (%) of flies when fed different sugar formulations: Table 1, first experiment; for Mortality (%) of flies when fed different erythritol and sucralose formulations: Table 2, second experiment. The procedure: Materials and Methods. Flies and sugars: Drosophila suzukii used in these experiments were from a colony maintained at 22±5° C. under a photoperiod of L:D 16:8 h, and a relative humidity of 60±5% RH at the Horticultural Crops Research Unit, USDA ARS in Corvallis, Oreg. Wildtype flies collected from infested fruits in Corvallis, Oreg. were used to start the colony. Standard rearing methods and diet are described by Woltz, J. M., et al., Journal of Applied Entomology, 139:759-770 (2015). Newly emerged adult males and females were collected daily and maintained in cages with water and diet until they were specific ages for experimentation. Sugars used in this study, meso-erythritol (>99%), sucrose (>99%), and sucralose (>99%), were purchased from Fisher Scientific (Hampton, N.H.).
Different sugar formulations on the fly survivorship: Ten 5-day old flies (5 males and 5 females) were introduced into a plastic vial and given a tube (1.5 ml) containing different water-based solutions. Two combinations of erythritol (Ery) mixed with sucrose (Suc) or sucralose (Sul) were introduced to flies in a plastic vial for 7 days (FIG. 1). For the first experiment various pairs were tested (Table 1): Suc 0.5 M, Ery 0.5 M, Ery 1.5 M+Suc 0.5 M, and Ery 1.5 M+Suc 0.1 M. For the second experiment various pairs were tested (Table 2): Suc 0.5 M, Ery 0.5 M, Sul 0.5 M, Sul 0.1 M, Ery 1.5 M+Sul 0.5 M, Ery 1.5 M+Sul 0.1 M, Ery 2.0 M+Sul 0.1 M, and Ery 2.0 M+Sul 0.01 M. Survivorship of flies was checked daily for 7 days. Each pair per experiment was replicated at least three times.

The subject of data set [2] is Drosophila suzukii. The data set can be described thus: Fly mortality in the cage experiment. It is filed as in vivo. To be noted: 7 days (FIG. 7). The procedure:
Materials and Methods. Flies and sugars: Drosophila suzukii used in these experiments were from a colony maintained at 22±5° C. under a photoperiod of L:D 16:8 h, and a relative humidity of 60±5% RH at the Horticultural Crops Research Unit, USDA ARS in Corvallis, Oreg. Wildtype flies collected from infested fruits in Corvallis, Oreg. were used to start the colony. Standard rearing methods and diet are described by Woltz, J. M., et al., Journal of Applied Entomology, 139:759-770 (2015). Newly emerged adult males and females were collected daily and maintained in cages with water and diet until they were specific ages for experimentation. […] Effect of erythritol formulations with sucrose or sucralose on fly mortality in the cage experiment: Two combinations of erythritol (Ery) mixed with sucrose (Suc) or sucralose (Sul) were introduced to ten flies in a cage (25 cm wide×25 cm deep×28 cm height) for 7 days (FIG. 6). […] The cage experiment shared similar results with both the vial and cup experiments (FIG. 2, FIG. 5, FIG. 7). In summary, the erythritol/sucralose formulation will not affect human health. The erythritol/sucralose formulation can be directly applied as an insecticide for insects such as Drosophila suzukii. […] The formulations can be used as a phagostimulant with conventional or biological insecticides. […]

As for `OC[C@H]1O[C@H](O[C@]2(CCl)O[C@H](CCl)[C@@H](O)[C@@H]2O)[C@H](O)[C@@H](O)[C@H]1Cl` [Sucralose (Sul) 0.5M, sucralose], the “Statistical comparison of mortalities in words” value in data set [1] is given as “statistically the same effect”.
The same measure, in the same setting: for `OC[C@H]1O[C@H](O[C@]2(CCl)O[C@H](CCl)[C@@H](O)[C@@H]2O)[C@H](O)[C@@H](O)[C@H]1Cl` [Sul 0.1M, sucralose] the value was “statistically the same effect”.
Regarding `OC[C@@H](O)[C@@H](O)CO` [Erythritol (Ery) 0.5M, meso-erythritol], the “Statistical comparison of results in words” value in data set [2] was “statistically similar”. In addition, the “Statistical comparison of mortalities in words” value in data set [1] is listed as “statistically the same values”.
As to `OC[C@H]1O[C@@](CO)(O[C@H]2O[C@H](CO)[C@@H](O)[C@H](O)[C@H]2O)[C@@H](O)[C@@H]1O` [Sucrose (Suc) 0.5M, sucrose], the “Mortality (%) of flies when fed different sugar formulations” value in data set [1] (Day1) is 1.3%; in data set [1] (Day2), 1.3%; in data set [1] (Day3), 3.8%; in data set [1] (Day4), 5.0%; in data set [1] (Day5) it was 5.0%; in data set [1] (Day6), 6.3%. In data set [1] (Day7), the “Mortality (%) of flies when fed different sugar formulations” value is 11.3%. For the same compound, the “Mortality (%) of flies when fed different erythritol and sucralose formulations” value in data set [1] (Day 1) was determined as 0.0%; in data set [1] (Day 2), 2.5%; in data set [1] (Day 3) it was 2.5%; in data set [1] (Day 4), 2.5%; in data set [1] (Day 5), 5.0%; in data set [1] (Day 6), 5.0%. For the same compound, the “Mortality (%) of flies when fed different erythritol and sucralose formulations” value in data set [1] (Day 7) came to 6.3%.
